“And” between values parts separate entries of the source, which are not always exact repeats. Identical values can stand only once. Inconclusive results and toxic doses are left out.

The assay has as its system CD2F1 mice, L1210 leukemia ip, survival T/C. Briefly: NCI In Vivo Anticancer Drug Screen. Data for tumor model L1210 Leukemia (intraperitoneal) in CD2F1 (CDF1) mice. Particulars: higher = longer survival. Put shortly: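 Transplantable tumor in mice; compound-treated vs vehicle-treated groups. Read-out = treated/control ratio of the measured endpoint.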
Where [1] appears, read: endpoint: mean survival time, dose: 12.5 mg/kg/injection, schedule: Q01DX009 (ip), vehicle: saline.
[2] abbreviates: endpoint: mean survival time, dose: 25.0 mg/kg/injection, schedule: Q01DX009 (ip), vehicle: saline.
[3] abbreviates: endpoint: mean survival time, dose: 50.0 mg/kg/injection, schedule: Q01DX009 (ip), vehicle: saline.
The mark [4] stands for this setting: endpoint: mean survival time, dose: 100.0 mg/kg/injection, schedule: Q01DX009 (ip), vehicle: saline with Tween-80.
Setting [5] is: endpoint: mean survival time, dose: 100.0 mg/kg/injection, schedule: Q01DX001 (ip), vehicle: saline with Tween-80.
Setting [6] is: endpoint: mean survival time, dose: 100.0 mg/kg/injection, schedule: Q04DX002 (ip), vehicle: saline with Tween-80.
[7] abbreviates: endpoint: mean survival time, dose: 200.0 mg/kg/injection, schedule: Q04DX002 (ip), vehicle: saline with Tween-80.
Where [8] appears, read: endpoint: mean survival time, dose: 400.0 mg/kg/injection, schedule: Q04DX002 (ip), vehicle: saline with Tween-80.

With `O=C1CC23CCCN2CCc2cc4c(cc2C3=C1O)OCO4` (configuration not stated), the T/C is 102 % of control (endpoint: mean survival time, dose: 1.56 mg/kg/injection, schedule: Q01DX009 (ip), vehicle: Klucel (hydroxypropylcellulose) (HPC)); 101 % of control (endpoint: mean survival time, dose: 3.13 mg/kg/injection, schedule: Q01DX009 (ip), vehicle: Klucel (hydroxypropylcellulose) (HPC)); 104 % of control (endpoint: mean survival time, dose: 6.25 mg/kg/injection, schedule: Q01DX009 (ip), vehicle: Klucel (hydroxypropylcellulose) (HPC)); 102 % of control (endpoint: mean survival time, dose: 12.5 mg/kg/injection, schedule: Q01DX009 (ip), vehicle: Klucel (hydroxypropylcellulose) (HPC)); 95 % of control (endpoint: mean survival time, dose: 25.0 mg/kg/injection, schedule: Q01DX009 (ip), vehicle: Klucel (hydroxypropylcellulose) (HPC)).
With `NC(=S)N/N=C/c1ccc(O)cn1`, the T/C by setting is: under setting [1], 124 % of control; (endpoint: mean survival time, dose: 12.5 mg/kg/injection, schedule: Q03HX024 (ip), vehicle: saline) 153 % of control and 163 % of control; (endpoint: mean survival time, dose: 18.8 mg/kg/injection, schedule: Q01DX009 (ip), vehicle: saline with Tween-80) 162 % of control; (endpoint: mean survival time, dose: 25.0 mg/kg/injection, schedule: Q01DX009 (ip), vehicle: saline with Tween-80) 155 % of control; under setting [2], 150 % of control and 170 % of control; (endpoint: mean survival time, dose: 25.0 mg/kg/injection, schedule: Q01DX009 (oral), vehicle: saline) 94 % of control. The T/C runs as follows: (endpoint: mean survival time, dose: 25.0 mg/kg/injection, schedule: Q03HX024 (ip), vehicle: saline) 168 % of control and 217 % of control; (endpoint: mean survival time, dose: 37.5 mg/kg/injection, schedule: Q01DX009 (ip), vehicle: saline with Tween-80) 160 % of control and 166 % of control; (endpoint: mean survival time, dose: 50.0 mg/kg/injection, schedule: Q01DX009 (ip), vehicle: saline with Tween-80) 183 % of control; under setting [3], 151 % of control and 154 % of control; (endpoint: mean survival time, dose: 50.0 mg/kg/injection, schedule: Q01DX009 (oral), vehicle: saline) 95 % of control; (endpoint: mean survival time, dose: 50.0 mg/kg/injection, schedule: Q03HX024 (ip), vehicle: saline) 162 % of control and 211 % of control. Also, the T/C runs as follows: under setting [4], 102 % of control; (endpoint: mean survival time, dose: 100.0 mg/kg/injection, schedule: Q01DX009 (oral), vehicle: saline) 103 % of control; (endpoint: mean survival time, dose: 150.0 mg/kg/injection, schedule: Q01DX009 (ip), vehicle: saline with Tween-80) 103 % of control; (endpoint: mean survival time, dose: 200.0 mg/kg/injection, schedule: Q01DX009 (ip), vehicle: saline) 115 % of control and 110 % of control; (endpoint: mean survival time, dose: 200.0 mg/kg/injection, schedule: Q01DX009 (oral), vehicle: saline) 102 % of control; (endpoint: mean survival time, dose: 400.0 mg/kg/injection, schedule: Q01DX009 (ip), vehicle: saline) 88 % of control and 92 % of control. The T/C (endpoint: mean survival time, dose: 400.0 mg/kg/injection, schedule: Q01DX009 (oral), vehicle: saline) is 114 % of control; the T/C (endpoint: median survival time, dose: 20.0 mg/kg/injection, schedule: Q03HX024 (ip), vehicle: saline) was 152 % of control and 566 % of control; the T/C (endpoint: median survival time, dose: 21.8 mg/kg/injection, schedule: Q03HX008 (ip), vehicle: suspension in saline) is 185 % of control; the T/C (endpoint: median survival time, dose: 22.5 mg/kg/injection, schedule: Q03HX024 (ip), vehicle: suspension in saline) was 214 % of control; the T/C (endpoint: median survival time, dose: 32.6 mg/kg/injection, schedule: Q03HX008 (ip), vehicle: suspension in saline) is 188 % of control; the T/C (endpoint: median survival time, dose: 40.0 mg/kg/injection, schedule: Q03HX024 (ip), vehicle: saline) is 210 % of control and 566 % of control. The T/C was 238 % of control (endpoint: median survival time, dose: 45.0 mg/kg/injection, schedule: Q03HX024 (ip), vehicle: suspension in saline); 119 % of control (endpoint: median survival time, dose: 45.0 mg/kg/injection, schedule: Q04DX003 (ip), vehicle: suspension in saline); 232 % of control (endpoint: median survival time, dose: 48.6 mg/kg/injection, schedule: Q03HX008 (ip), vehicle: suspension in saline); 566 % of control (endpoint: median survival time, dose: 50.0 mg/kg/injection, schedule: Q03HX024 (ip), vehicle: saline); 566 % of control (endpoint: median survival time, dose: 60.0 mg/kg/injection, schedule: Q03HX024 (ip), vehicle: saline); 119 % of control (endpoint: median survival time, dose: 80.0 mg/kg/injection, schedule: Q03HX024 (ip), vehicle: saline). Also, the T/C is, setting by setting: (endpoint: median survival time, dose: 90.0 mg/kg/injection, schedule: Q04DX003 (ip), vehicle: suspension in saline) 122 % of control; (endpoint: median survival time, dose: 108.3 mg/kg/injection, schedule: Q03HX008 (ip), vehicle: suspension in saline) 94 % of control; (endpoint: median survival time, dose: 161.6 mg/kg/injection, schedule: Q04DX003 (ip), vehicle: suspension in saline) 152 % of control; (endpoint: median survival time, dose: 180.0 mg/kg/injection, schedule: Q03HX024 (ip), vehicle: suspension in saline) 110 % of control; (endpoint: median survival time, dose: 241.2 mg/kg/injection, schedule: Q04DX003 (ip), vehicle: suspension in saline) 156 % of control; (endpoint: median survival time, dose: 360.0 mg/kg/injection, schedule: Q04DX003 (ip), vehicle: suspension in saline) 176 % of control and 211 % of control. The T/C reads like this: (endpoint: median survival time, dose: 537.3 mg/kg/injection, schedule: Q04DX003 (ip), vehicle: suspension in saline) 184 % of control; (endpoint: median survival time, dose: 720.0 mg/kg/injection, schedule: Q04DX003 (ip), vehicle: suspension in saline) 122 % of control.
Turning to `COc1cc(C=Nc2ccc(-c3nc(C)sc3C)cc2)ccc1N(CCCl)CCCl`, the T/C (endpoint: mean survival time, dose: 25.0 mg/kg/injection, schedule: Q01DX001 (ip), vehicle: carboxymethylcellulose (CMC)) was 155 % of control and the T/C (endpoint: mean survival time, dose: 50.0 mg/kg/injection, schedule: Q01DX001 (ip), vehicle: carboxymethylcellulose (CMC)) was 97 % of control.
With `Nc1ccc2ncccc2c1`, the T/C runs as follows: (endpoint: mean survival time, dose: 25.0 mg/kg/injection, schedule: Q01DX009 (ip), vehicle: other) 93 % of control; (endpoint: mean survival time, dose: 50.0 mg/kg/injection, schedule: Q01DX009 (ip), vehicle: other) 95 % of control; (endpoint: mean survival time, dose: 100.0 mg/kg/injection, schedule: Q01DX009 (ip), vehicle: other) 91 % of control.
As for `Cc1nn(-c2ccc(Cl)cc2)c(C)c1N=O`, the T/C under setting [5] is 104 % of control.
Consider `CC(=O)Nc1ccc(C(=O)c2ccc(C(=O)O)cc2)cc1`, for which the T/C is 92 % of control and 98 % of control under setting [6]; 95 % of control and 100 % of control (endpoint: mean survival time, dose: 100.0 mg/kg/injection, schedule: Q04DX003 (ip), vehicle: saline with Tween-80); 93 % of control and 96 % of control under setting [7]; 104 % of control and 109 % of control (endpoint: mean survival time, dose: 200.0 mg/kg/injection, schedule: Q04DX003 (ip), vehicle: saline with Tween-80); 96 % of control and 107 % of control under setting [8]; 114 % of control and 104 % of control (endpoint: mean survival time, dose: 400.0 mg/kg/injection, schedule: Q04DX003 (ip), vehicle: saline with Tween-80).
With `C(=C(\c1ccccc1)N1CCOCC1)/c1ccccc1`, the T/C is, setting by setting: (endpoint: mean survival time, dose: 100.0 mg/kg/injection, schedule: Q01DX001 (ip), vehicle: saline sonified) 111 % of control; under setting [6], 93 % of control; (endpoint: mean survival time, dose: 200.0 mg/kg/injection, schedule: Q01DX001 (ip), vehicle: saline sonified) 104 % of control; under setting [7], 96 % of control; (endpoint: mean survival time, dose: 400.0 mg/kg/injection, schedule: Q01DX001 (ip), vehicle: saline sonified) 102 % of control; under setting [8], 96 % of control.
In the case of `NS(=O)(=O)c1cc2c(cc1Cl)NCNS2(=O)=O`, the T/C reads like this: under setting [4], 98 % of control; (endpoint: mean survival time, dose: 200.0 mg/kg/injection, schedule: Q01DX009 (ip), vehicle: saline with Tween-80) 98 % of control; (endpoint: mean survival time, dose: 400.0 mg/kg/injection, schedule: Q01DX009 (ip), vehicle: saline with Tween-80) 96 % of control.
Turning to `CN(C)C1CCc2ccc3ccccc3c2C1=O` (configuration not stated), the T/C was 105 % of control under setting [1], 102 % of control under setting [2] and 105 % of control under setting [3].
As for `CCOC(=O)C(=O)Nc1ccc(Cl)cc1`, the T/C was 94 % of control under setting [5]; 97 % of control (endpoint: mean survival time, dose: 200.0 mg/kg/injection, schedule: Q01DX001 (ip), vehicle: saline with Tween-80); 95 % of control (endpoint: mean survival time, dose: 400.0 mg/kg/injection, schedule: Q01DX001 (ip), vehicle: saline with Tween-80).
As for `C[n+]1ccc2ccccc2c1`, the T/C is 103 % of control (endpoint: mean survival time, dose: 75.0 mg/kg/injection, schedule: Q01DX001 (ip), vehicle: saline) and 103 % of control (endpoint: mean survival time, dose: 150.0 mg/kg/injection, schedule: Q01DX001 (ip), vehicle: saline).

For the origin of these results see PubChem BioAssay AID256 (DTP/NCI, 2004).
